These compounds were tested on ADAM8-dependent shedding of CD23 in double-stable HEK cells (ADAM8/CD23) (assay: Cell-based CD23 shedding assay (soluble CD23 ELISA)). Details: Homo sapiens, HEK293, 24 h incubation, 125 nM to 10 μM, ELISA of supernatants, read-out: IC50 for shedding of CD23 (soluble CD23 release).
Description: Next, these compounds were tested for their ability to inhibit the shedding of an ADAM8-dependent cell surface protein, the low affinity IgE receptor CD23, […]. In brief, a human embryonic kidney (HEK) cell line expressing ADAM8 and CD23[13] was incubated with different concentrations of inhibitors, and the release of soluble CD23 in the cell supernatants was determined by a CD23 enzyme-linked immunosorbent assay (ELISA) (Figure 4).
Figure 4 Effects of new compounds 1–3 and JG26 (125 nM to 10 μM) on the shedding of CD23 in a cell-based assay using double-stable HEK cells (ADAM8/CD23). After the incubation of cells with 1–3 and JG26 for 24 h, cell supernatants were collected and subjected to an ELISA to determine the amount of soluble CD23. Data are the mean values from three independent experiments performed in triplicate. […]
VII. Biological Activity on cells
Cell-based shedding assay
HEK293 cells stably transfected with ADAM8 and CD23 were incubated for 24 h at 37°C in the presence of inhibitors in concentrations indicated in DMEM medium supplemented with 10% fetal calf serum. A human soluble CD23 ELISA (R&D Systems, Biotechne, Wiesbaden) was used to detect ADAM8-dependent release of soluble CD23 in the cell culture medium. ELISA experiments were performed in three independent experiments in triplicates. The relative CD23 release (control = 100%) was determined for all samples. […]
For `O=C(CCCNC(=O)c1cccc(C(=O)NCCCC(=O)NCCC[C@@H](NS(=O)(=O)c2ccc(OCc3cc(Br)cc(Br)c3)cc2)C(=O)NO)c1)NCCC[C@@H](NS(=O)(=O)c1ccc(OCc2cc(Br)cc(Br)c2)cc1)C(=O)NO` [Compound 1], the IC50 was > 1500 nM. `O=C(NCCC[C@@H](NS(=O)(=O)c1ccc(OCc2cc(Br)cc(Br)c2)cc1)C(=O)NO)c1cccc(C(=O)NCCC[C@@H](NS(=O)(=O)c2ccc(OCc3cc(Br)cc(Br)c3)cc2)C(=O)NO)c1` [Compound 2] gave an IC50 of 350 nM. Compound `O=C(NCCC[C@@H](NS(=O)(=O)c1ccc(OCc2cc(Br)cc(Br)c2)cc1)C(=O)NO)NCCC[C@@H](NS(=O)(=O)c1ccc(OCc2cc(Br)cc(Br)c2)cc1)C(=O)NO` [Compound 3] has an IC50 of 800 nM. Compound `NC(=O)NCCC[C@@H](NS(=O)(=O)c1ccc(OCc2cc(Br)cc(Br)c2)cc1)C(=O)NO` [JG26, reference compound] has an IC50 of 120 nM.

Source: article PMC8805605, “Discovery of Dimeric Arylsulfonamides as Potent ADAM8 Inhibitors” (ACS Medicinal Chemistry Letters, 2021)
